The structures appear in SMILES notation.

FXR, sequence (Q96RI1 whole entry, species assumed): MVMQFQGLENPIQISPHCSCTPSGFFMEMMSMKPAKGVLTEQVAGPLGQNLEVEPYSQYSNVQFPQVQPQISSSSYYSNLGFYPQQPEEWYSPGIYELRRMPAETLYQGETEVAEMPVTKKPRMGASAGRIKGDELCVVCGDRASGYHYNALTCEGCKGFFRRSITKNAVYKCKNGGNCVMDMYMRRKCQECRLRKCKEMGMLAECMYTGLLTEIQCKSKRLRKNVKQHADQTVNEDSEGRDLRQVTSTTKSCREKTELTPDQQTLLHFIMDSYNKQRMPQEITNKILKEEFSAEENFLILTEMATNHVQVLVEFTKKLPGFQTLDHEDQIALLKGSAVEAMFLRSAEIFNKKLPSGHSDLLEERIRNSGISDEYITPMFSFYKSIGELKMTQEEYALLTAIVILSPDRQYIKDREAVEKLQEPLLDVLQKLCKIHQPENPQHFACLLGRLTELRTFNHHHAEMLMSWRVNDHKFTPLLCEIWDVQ

The assay deals with FXR (Homo sapiens (Human), UniProt Q96RI1). The assay is described as follows: FXR Agonist Assay (Gaussia luciferase reporter). It is filed as cell-based. The settings on record: cells incubated with compound at 37° C. for 20 hours; Gaussia luciferase luminescence; 10-point dose-response in duplicate. The method, then:
Starting from 3.33 mM of compound in DMSO solution, a 10-point 3-fold serial dilution was made by diluting 5 μL of compound into 10 μL of DMSO. The serially diluted compound was then diluted 1:33 into DMEM. This medium was then diluted ten-fold into the culture medium with the cells (10 μL/well). All concentration points are assayed in duplicate. Plates were incubated at 37° C. for 20 hours. After the incubation, 20 μL of culture medium were removed from each well and mixed with 50 μL of assay solution (Pierce™ Gaussia Luciferase Flash Assay Kit). The luminescence was measured immediately after addition of the Luc substrate with an Envision microplate reader. The raw data was uploaded to CDD and dose-response curves were generated using the Levenberg-Marquardt algorithm integrated into CDD. A negative control DMSO is included on each plate and used to normalize the data with the CDD built-in normalization function.
For the compound `CCCc1n[nH]c2c1C(C)(C)CN(C(=O)c1cccc(F)c1)C=C2C(=O)OC(C)C` [Example 37], the EC50 is below 0.2 µM.
Take `CC(C)OC(=O)C1=CN(C(=O)c2ccc(F)c(F)c2)CC(C)(C)c2cn[nH]c21` [Example 46]: the EC50 lay within 0.2 to 1 µM.
For the compound `CCOC(=O)C1=CN(C(=O)c2ccc(F)c(F)c2)CC(C)(C)c2c(-c3ccc(F)cc3)n[nH]c21` [Example 3, (E)-ethyl 6-(3,4-difluorobenzoyl)-3-(4-fluorophenyl)-4,4-dimethyl-1,4,5,6-tetrahydropyrazolo[3,4-d]azepine-8-carboxylate], the concentration for a half-maximal effect (EC50) is below 0.2 µM.
For `CC(C)OC(=O)C1=CN(C(=O)c2ccc(F)c(OCCN3CCOCC3)c2)CC(C)(C)c2c(C(F)(F)F)n[nH]c21` [Example 6], the EC50 is 0.2 to 1 µM.
On to `CC(C)OC(=O)C1=CN(C(=O)c2ccc(Cl)c(Cl)c2)CC(C)(C)c2cn[nH]c21` [Example 42], for which the EC50 was below 0.2 µM.
For the compound `CCCCc1n[nH]c2c1C(C)(C)CN(C(=O)C1CCCCC1)C=C2C(=O)OC(C)C` [Example 30], the concentration giving a half-maximal response (EC50) lay within 0.2 to 1 µM.
In the case of `CC(C)OC(=O)C1=CN(C(=O)c2cccc(F)c2)CC(C)(C)c2c(C(F)(F)F)n[nH]c21` [Example 23], the concentration giving a half-maximal response (EC50) is below 0.2 µM.
For the compound `CCCc1n[nH]c2c1C(C)(C)CN(C(=O)c1ccccn1)C=C2C(=O)OC(C)C` [Example 19], the EC50 was 1 to 10 µM.
Regarding `CCCc1n[nH]c2c1C(C)(C)CN(C(=O)c1ccncc1)C=C2C(=O)OC(C)C` [Example 20], the EC50 fell in the range of 0.2 to 1 µM.
Consider `CCCc1n[nH]c2c1C(C)(C)CN(C(=O)C1CCOCC1)C=C2C(=O)OC(C)C` [Example 36], for which the EC50 is 0.2 to 1 µM.
The figure for `CCCCc1n[nH]c2c1C(C)(C)CN(C(=O)c1ccc(F)c(F)c1)C=C2C(=O)OC(C)C` [Example 31] is below 0.2 µM; for `CCOC(=O)C1=CN(C(=O)c2ccc(F)c(F)c2)CC(C)(C)c2c(C)n[nH]c21` [Example 2, (E)-ethyl 6-(3,4-difluorobenzoyl)-3,4,4-trimethyl-1,4,5,6-tetrahydropyrazolo[3,4-d]azepine-8-carboxylate] it is below 0.2 µM.
With `CC(C)NC(=O)C1=CN(C(=O)c2ccc(F)c(F)c2)CC(C)(C)c2c(C(F)(F)F)n[nH]c21` [Example 14], the EC50 is below 0.2 µM.
With `CC(C)OC(=O)C1=CN(C(=O)c2cccc(OCCN3CCOCC3)c2)CC(C)(C)c2c(C(F)(F)F)n[nH]c21` [Example 7], the EC50 was 0.2 to 1 µM.
Regarding `CCOC(=O)C1=CN(C(=O)C2CCCCC2)CC(C)(C)c2cn[nH]c21` [Example 48], the EC50 was in the range of 1 to 10 µM.
On to `CC(C)OC(=O)C1=CN(C(=O)c2ccc(F)cc2)CC(C)(C)c2c(C(F)(F)F)n[nH]c21` [Example 17], for which the EC50 was below 0.2 µM.
For the compound `CCCCc1n[nH]c2c1C(C)(C)CN(C(=O)N1CCOCC1)C=C2C(=O)OC(C)C` [Example 29], the EC50 was below 0.2 µM.
As to `CCOC(=O)C1=CN(C(=O)c2ccc(F)c(F)c2)CC(C)(C)c2c(C(C)C)n[nH]c21` [Example 5], the EC50 is below 0.2 µM.
The figure for `CCOC(=O)C1=CN(C(=O)c2cc3ccccc3s2)CC(C)(C)c2cn[nH]c21` [Example 44] is 0.2 to 1 µM.
For the compound `CC(C)NC(=O)C1=CN(C(=O)c2ccc(F)c(F)c2)CC(C)(C)c2cn[nH]c21` [Example 45], the EC50 was in the range of 0.2 to 1 µM.
Turning to `CCOC(=O)C1=CN(C(=O)c2ccc3c(c2)OC(F)(F)O3)CC(C)(C)c2cn[nH]c21` [Example 47], the EC50 fell in the range of 1 to 10 µM.
`CCCc1n[nH]c2c1C(C)(C)CN(C(=O)N1CCOCC1)C=C2C(=O)OC(C)C` [Example 34]: the EC50 was in the range of 0.2 to 1 µM.
As for `CCOC(=O)C1=CN(C(=O)c2ccc(F)c(F)c2)CC(C)(C)c2cn[nH]c21` [Example 4, (E)-ethyl 6-(3,4-difluorobenzoyl)-4,4-dimethyl-1,4,5,6-tetrahydropyrazolo[3,4-d]azepine-8-carboxylate], the EC50 lay in the range of 0.2 to 1 µM.
As for `CCCc1n[nH]c2c1C(C)(C)CN(C(=O)C1CCCCC1)C=C2C(=O)OC(C)C` [Example 35], the EC50 was below 0.2 µM.
The figure for `CC(C)OC(=O)C1=CN(C(=O)c2ccc(F)c(CN3CCOCC3)c2)CC(C)(C)c2c(C(F)(F)F)n[nH]c21` [Example 12] is below 0.2 µM; for `CC(C)NC(=O)C1=CN(C(=O)c2ccc(OCCN3CCOCC3)cc2)CC(C)(C)c2c(C(F)(F)F)n[nH]c21` [Example 8] it is below 0.2 µM.
For the compound `CC(C)Cc1n[nH]c2c1C(C)(C)CN(C(=O)c1cccc(F)c1)C=C2C(=O)OC(C)C` [Example 25], the EC50 is below 0.2 µM.
Turning to `COCCc1n[nH]c2c1C(C)(C)CN(C(=O)c1cccc(F)c1)C=C2C(=O)OC(C)C` [Example 27], the EC50 is below 0.2 µM.
In the case of `CCCCc1n[nH]c2c1C(C)(C)CN(C(=O)c1cccc(F)c1)C=C2C(=O)OC(C)C` [Example 33], the EC50 is below 0.2 µM.
Turning to `CC(C)OC(=O)C1=CN(C(=O)c2cc(F)c(F)cc2Cl)CC(C)(C)c2c(C(F)(F)F)n[nH]c21` [Example 11], the EC50 was below 0.2 µM.
On to `CC(C)OC(=O)C1=CN(C(=O)c2ccc(OCCN3CCOCC3)cc2)CC(C)(C)c2c(C(F)(F)F)n[nH]c21` [Example 13], for which the EC50 was below 0.2 µM.
On to `CC(C)OC(=O)C1=CN(C(=O)N2CCN(C)CC2)CC(C)(C)c2c(C(F)(F)F)n[nH]c21` [Example 22], for which the concentration giving a half-maximal response (EC50) lay in the range of 0.2 to 1 µM.
With `CC(C)OC(=O)C1=CN(C(=O)c2ccc(F)c(F)c2)CC(C)(C)c2c(C(F)(F)F)n[nH]c21` [Example 24], the EC50 is below 0.2 µM.
Take `CCOC(=O)C1=CN(C(=O)c2cccc(F)c2)CC(C)(C)c2cn[nH]c21` [Example 49]: the EC50 was in the range of 0.2 to 1 µM.
For `CCCc1n[nH]c2c1C(C)(C)CN(C(=O)c1ccc(F)c(F)c1)C=C2C(=O)OCC` [Example 40], the EC50 was below 0.2 µM.
The figure for `CC(C)OC(=O)C1=CN(C(=O)c2ccc(OCCCN3CCOCC3)cc2)CC(C)(C)c2c(C(F)(F)F)n[nH]c21` [Example 9] is below 0.2 µM; for `CCCCc1n[nH]c2c1C(C)(C)CN(C(=O)c1ccc(F)c(F)c1)C=C2C(=O)OCC` [Example 39] it is below 0.2 µM; for `CCCc1n[nH]c2c1C(C)(C)CN(C(=O)c1ccc(F)c(F)c1)C=C2C(=O)OC(C)C` [Example 38] it is below 0.2 µM.
For the compound `CCCCc1n[nH]c2c1C(C)(C)CN(C(=O)C1CCOCC1)C=C2C(=O)OC(C)C` [Example 32], the EC50 lay in the range of 0.2 to 1 µM.
The figure for `CCCc1n[nH]c2c1C(C)(C)CN(C(=O)c1cccnc1)C=C2C(=O)OC(C)C` [Example 18] is 0.2 to 1 µM; for `CC(=O)c1n[nH]c2c1C(C)(C)CN(C(=O)c1ccc(F)c(F)c1)C=C2C(=O)OC(C)C` [Example 10] it is below 0.2 µM; for `CC(C)OC(=O)C1=CN(C(=O)c2ccc(F)cc2F)CC(C)(C)c2c(C(F)(F)F)n[nH]c21` [Example 16] it is below 0.2 µM.
For the compound `COCCc1n[nH]c2c1C(C)(C)CN(C(=O)c1ccc(F)c(F)c1)C=C2C(=O)OC(C)C` [Example 28], the EC50 is below 0.2 µM.
As for `CCCc1n[nH]c2c1C(C)(C)CN(C(=O)c1ccc(C(F)(F)F)nc1)C=C2C(=O)OC(C)C` [Example 21], the EC50 lay in the range of 0.2 to 1 µM.
With `CCOC(=O)C1=CN(C(=O)c2ccc(F)c(F)c2)CC(C)(C)c2c(CC)n[nH]c21` [Example 41], the EC50 is below 0.2 µM.
Take `CCOC(=O)C1=CN(C(=O)c2ccc3ccccc3c2)CC(C)(C)c2cn[nH]c21` [Example 43]: the EC50 was below 0.2 µM.
Turning to `CC(C)Cc1n[nH]c2c1C(C)(C)CN(C(=O)c1ccc(F)c(F)c1)C=C2C(=O)OC(C)C` [Example 26], the EC50 is below 0.2 µM.

These data come from patent US10233187B2, “Fused bicyclic compounds for the treatment of disease” (AKARNA THERAPEUTICS, LTD., priority 2014, dated 2019).
